Laboratory results: patent US5972680A, “Glucose transporter vesicle aminopeptidase” (Bayer Corporation, priority 1995, dated 1999)
Where two headings read alike, the source gives them in different places. Where a SMILES comes first, the peptide text is derived from it. The star is where a group is joined. CH2Cl = ClC*

Columns and labels:
[1] = target: T1, GTVap (Rattus norvegicus, UniProt P97629); assay: GTVap inhibition by protease and aminopeptidase inhibitors, leu-p-nitroanilide substrate, HDM extract; format: biochemical; settings: for IC50: HDM enzyme extract, inhibitor added 15 minutes prior to leu-p-nitroanilide substrate
T1 construct: the GTVaps were solubilized from GLUT4 vesicles, LDM, HDM, and PM using 0.1% Triton X-100; from tissue; host or cells: adipocytes of epididymal fat pads of Sprague-Dawley rats, HDM fraction (Triton X-100 extract)
T1 sequence (P97629 1-1025): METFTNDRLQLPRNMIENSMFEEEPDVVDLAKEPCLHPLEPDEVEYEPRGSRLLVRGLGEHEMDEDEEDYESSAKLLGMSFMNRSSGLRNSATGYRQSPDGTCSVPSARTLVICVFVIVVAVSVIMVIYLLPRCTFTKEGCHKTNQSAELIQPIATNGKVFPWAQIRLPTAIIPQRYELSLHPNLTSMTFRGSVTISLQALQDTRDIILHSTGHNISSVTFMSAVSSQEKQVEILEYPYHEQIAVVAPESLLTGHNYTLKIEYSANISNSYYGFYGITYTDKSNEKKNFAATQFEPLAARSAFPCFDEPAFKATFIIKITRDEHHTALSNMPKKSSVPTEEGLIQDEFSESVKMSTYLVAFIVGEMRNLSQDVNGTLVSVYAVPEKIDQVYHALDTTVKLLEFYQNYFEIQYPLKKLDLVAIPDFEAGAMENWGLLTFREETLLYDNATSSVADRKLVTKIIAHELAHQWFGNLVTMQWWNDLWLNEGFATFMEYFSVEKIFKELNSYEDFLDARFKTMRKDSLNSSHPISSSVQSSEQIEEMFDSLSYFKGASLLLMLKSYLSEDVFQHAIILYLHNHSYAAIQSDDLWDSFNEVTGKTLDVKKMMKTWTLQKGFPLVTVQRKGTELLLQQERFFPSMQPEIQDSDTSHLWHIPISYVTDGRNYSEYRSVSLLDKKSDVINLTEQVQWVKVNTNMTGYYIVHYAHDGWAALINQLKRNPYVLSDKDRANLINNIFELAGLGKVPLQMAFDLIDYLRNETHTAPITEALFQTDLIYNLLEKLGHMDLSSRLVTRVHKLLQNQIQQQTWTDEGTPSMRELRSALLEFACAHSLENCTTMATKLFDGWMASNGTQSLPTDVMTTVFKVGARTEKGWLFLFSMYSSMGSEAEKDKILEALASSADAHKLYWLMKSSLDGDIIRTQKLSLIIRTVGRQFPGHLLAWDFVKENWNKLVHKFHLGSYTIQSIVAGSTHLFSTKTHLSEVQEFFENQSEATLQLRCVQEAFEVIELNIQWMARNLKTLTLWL

[2] = target: T1, GTVap; assay: Effect of ions on GTVap activity, Triton X-100 extracts of HDM; format: biochemical
[3] = target: T1, GTVap; assay: Ion stabilization of GTVap activity over time at 4° C.; format: biochemical; settings: HDM extract in 20 mM Tris-HCl pH 7.5 at 4° C.
[4] = target: T1, GTVap; assay: Relative activity of GTVap with amino acid p-nitroanilide substrates, HDM extract; format: biochemical; settings: substrate 1.6 mM, 37° C.
Experimental: The […] can be maximally extracted (>95%) from the LDM, HDM, and PM membranous compartments using low concentrations of detergents. Unless otherwise indicated, the […] were solubilized from GLUT4 vesicles, LDM, HDM, and PM using 0.1% Triton X-100 in 20 mM Tris, pH 7.5 at 4° C. for 15 minutes. The insoluble material was pelleted at 20,000×g for 20 minutes and discarded. […] The UV absorbance of the p-nitroanilide product was measured at 405 nm and quantified by comparison to p-nitroanilide standards. The results are reported as pmoles p-nitroanilide produced per μg protein/hour at 37° C. unless otherwise noted. Alternatively, the results are presented as change in OD at 405 nm if the protein was too low to determine (eg column fractions) or a relative comparison was being made. […] To characterize the relative reactivities of GTVap to different amino acid p-nitroanilide substrates, an HDM extract was prepared as described above and incubated with each substrate at a concentration of 1.6 mM as described above.

[5] = target: T2, GLUT4 vesicle GTVap (Rattus norvegicus, UniProt P97629); assay: Relative activity of GLUT4 vesicle GTVap with amino acid β-napthylamide substrates; format: biochemical; settings: GLUT4 vesicle extract; substrate 200 uM
T2 construct: a GLUT4 vesicle extract was prepared as described above and incubated with each substrate; from tissue; host or cells: GLUT4 vesicles immunopurified from the LDM fraction of rat epididymal adipocytes
T2 sequence (P97629 1-1025): T1 sequence (P97629 1-1025)
Experimental: Unless otherwise indicated, the GTVaps were solubilized from GLUT4 vesicles, LDM, HDM, and PM using 0.1% Triton X-100 in 20 mM Tris, pH 7.5 at 4° C. for 15 minutes. The insoluble material was pelleted at 20,000×g for 20 minutes and discarded. […] The results are reported as pmoles p-nitroanilide produced per μg protein/hour at 37° C. unless otherwise noted.
To characterize the relative reactivities of GTVap to different amino acid β-napthylamide substrates, a GLUT4 vesicle extract was prepared as described above and incubated with each substrate at a concentration of 200 uM as described above.

[6] = test system: GTVap; assay: Insulin-stimulated translocation of GTVap to the plasma membrane in rat adipocytes; format: cell-based; settings: insulin 10 nM, 20 minutes at 37° C.
Experimental: Epididymal fat pads from 125 g Sprague-Dawley rats were removed and immediately placed in KRBH buffer containing 1% BSA, 2.5 mM glucose and 200 nM adenosine. The fat was minced, collagenase was added to 3 mg/ml, and the mixture was incubated at 37° C. for 45 minutes with shaking. The dissociated adipocytes were filtered through a 250 micron nylon screen and washed 3 times (using mild centrifugation) with KRBH containing 1% BSA and 200 nM adenosine. The cells were resuspended in the wash buffer containing 3% BSA.
The membrane fractions PM, HDM and LDM were prepared generally according to Simpson et. al., Biochimica et Biophysica Acta, 763, 393-407 (1983). Isolated adipocytes were homogenized in a chilled Wheaton 55 ml teflon pestle homogenizer for ten strokes. The fat layer was removed following a 10,000×g centrifugation and the remaining material was rehomogenized. The PM fraction was pelleted at 16,000×g and the supernatant was recentrifuged to remove any additional PM. […]
GLUT4 is known to translocate from an intracellular vesicular compartment to the plasma membrane upon insulin stimulation. […] The insulin stimulated and control adipocytes were fractionated into the subcellular compartments and analyzed for GTVap enzyme and protein (Western blot) as previously described.

[7] = target: T1, GTVap; assay: GTVap cleavage of insulin by HDM, mass spectrometry; format: biochemical; settings: HDM 1.8 mg/ml, 120 μg/ml porcine insulin, 37° C., pH 7.5
Experimental: HDM (1.8 mg/ml) was incubated at 37° C. with 120 μg/ml porcine insulin in 50 mM sodium borate, pH 7.5, containing the following protease inhibitors that were previously shown to have no inhibitory effect on GTVap: 2 mM benzamidine, 2 μM leupeptin, 1 μM pepstatin, 1 mM DFP, and 150 μM PMSF. The reaction was terminated after various incubation times by centrifugation of aliquots at 200,000×g to remove the HDM. The insulin products were detected by mass spectrometry or were first chromatographed on a 2.1×15 cm Beckman Spherisorb C18 column at 0.25 ml/min. in a 4 hour linear gradient of 27% to 31% acetonitrile in 1% TFA adjusted to pH 3.0 with TEA, prior to mass spectroscopic analysis.

[8] = target: GTVap (Glucose Transporter Vesicle aminopeptidase) as present in rat adipocyte HDM and HDM extracts (rat); assay: batch adsorption of solubilised HDM extract on wheat germ lectin-Sepharose
[9] = incubated 15 minutes at 37° C. before leu-p-nitroanilide

## O[C@H](CS)[C@H](O)CS (racemic) [Dithiothreitol]
[1]; at 0.2 mM, read-out: increase of enzyme activity
  activation at 200 µM: 20%
[1]; at 5 mM
  inhibition at 5000 µM: 30%

## [Zn+2] [Zinc]
[2]; [9]
  effect of ion on GTVap enzyme activity: optimally activate at μmolar concentrations and inhibit at mmolar concentrations
[3]
  stabilization of GTVap activity against time dependent inactivation: do not stabilize the enzyme

## O=C(Nc1ccc([N+](=O)[O-])cc1)[C@@H]1CCCN1 [proline p-nitroanilide]
[4]
  activity of GTVap with amino acid-p-nitroanilide substrate: 0.35 nmoles/μg protein/hr

## NCC(=O)Nc1ccc([N+](=O)[O-])cc1 [glycine p-nitroanilide]
[4]
  activity of GTVap with amino acid-p-nitroanilide substrate: 0.08 nmoles/μg protein/hr

## [Co+2] [cobalt]
[2]; [9]
  effect of ion on GTVap enzyme activity: optimally activate at μmolar concentrations and inhibit at mmolar concentrations
[3]
  stabilization of GTVap activity against time dependent inactivation: do not stabilize the enzyme

## CCCCC[C@H](CC(=O)NO)C(=O)N[C@H](C(=O)N1CCC[C@H]1CO)C(C)C [actinonin, Actinonin]
[1]
  IC50: > 1000 µM

## [Ca] [Calcium]
[2]; [9]
  effect of ion on GTVap enzyme activity: partially activate, but at high μmolar to mmolar ion concentrations
[3]
  stabilization of GTVap activity against time dependent inactivation: stabilizes the enzyme activity

## [K+] [potassium]
[2]; between 1 μM and 10 mM
  effect of ion on GTVap enzyme activity: no effect

## CC(C)[C@H](N)C(=O)Nc1ccc([N+](=O)[O-])cc1 [valine p-nitroanilide]
[4]
  activity of GTVap with amino acid-p-nitroanilide substrate: 0.09 nmoles/μg protein/hr

## N=C(N)NCCCC(N)C(=O)Nc1ccc2ccccc2c1 (stereo not drawn) [arginine β-napthylamide]
[5]
  activity of GLUT4 vesicle GTVap with amino acid-β-napthylamide substrate: 6.5 nmoles/25 uL extract/hr

## c1cnc2c(c1)ccc1cccnc12 [phenanthroline]
[1]; at >0.2 mM, relative to inhibitor-free control
  inhibition of GTVap activity: > 98%

## [Mn+2] [manganese]
[2]; [9]
  effect of ion on GTVap enzyme activity: optimally activate at μmolar concentrations and inhibit at mmolar concentrations
[3]
  stabilization of GTVap activity against time dependent inactivation: do not stabilize the enzyme

## insulin: Insulin (porcine) obtained from Eli Lilly
[6]
  GTVap translocation (Western blot reactivity): translocates to the plasma membrane
  increase of GTVap enzyme activity in the plasma membrane: 29%
[7]
  cleavage of insulin by GTVap (mass spectroscopic analysis): N-terminal residues phenylalanine and valine of the B-subunit of insulin were removed sequentially

## CC(C)C[C@H](NC(=O)[C@@H](N)CC(C)C)C(=O)N[C@@H](Cc1ccccc1)C(=O)CCl [Leu-Leu-Phe-chloromethyl ketone] (H-Leu-Leu-Phe-CH2Cl)
[1]
  IC50: 1000 µM

## CC(=O)N[C@@H](CC(C)C)C(=O)N[C@@H](CC(C)C)C(=O)N[C@H](C=O)CCCNC(=N)N [leupeptin, Leupeptin]
[1]
  effect on GTVap activity: no effect

## lithium
[2]; between 1 μM and 10 mM
  effect of ion on GTVap enzyme activity: no effect

## CSCCC(N)C(=O)Nc1ccc2ccccc2c1 (stereo not drawn) [methionine β-napthylamide]
[5]
  activity of GLUT4 vesicle GTVap with amino acid-β-napthylamide substrate: 2.9 nmoles/25 uL extract/hr

## N=C(N)c1ccccc1 [benzamidine, Benzamidine]
[1]
  effect on GTVap activity: no effect

## O=S(=O)(F)Cc1ccccc1 [PMSF, phenylmethylsulfonyl fluoride]
[1]
  effect on GTVap activity: no effect

## CC(C)C[C@H](N)CS [leuthiol, L-leucinethiol]
[1]
  IC50: 2 µM

## wheat germ lectin-Sepharose 6 MB (tool reagent)
[8]
  percent of total aminopeptidase activity bound: 93%

## [Mg] [magnesium]
[2]; [9]
  effect of ion on GTVap enzyme activity: partially activate, but at high μmolar to mmolar ion concentrations

## c1ccc(-c2ccccn2)nc1 [dipyridyl]
[1]
  inhibition of GTVap activity: > 98%

## NC(Cc1ccccc1)C(=O)Nc1ccc2ccccc2c1 (stereo not drawn) [phenylalanine β-napthylamide]
[5]
  activity of GLUT4 vesicle GTVap with amino acid-β-napthylamide substrate: 0.9 nmoles/25 uL extract/hr
